The source of these data is ChEMBL document CHEMBL1201862, “PubChem BioAssay data set” (2004).

SMILES strings stand for the structures.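 Exposure lasted 48 hours, with cells grown in 96-well plates and compounds tested at five concentrations. GI50 = concentration required for 50% inhibition of growth.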 The source made the active and inactive calls. Rule as the data show it: active = GI50 up to about 1.1 µM and inactive = higher.

Test systems include EKVX; OVCAR-5; CAKI-1; COLO 205; OVCAR-8; ACHN; Malme-3M; CCRF-CEM; HL-60; SN12C; MDA-N; IGROV-1; SW-620; NCI-H460; TK-10; UO-31; UACC-62; HCT-116; HCC 2998; SF-268.
Common to all, as to assay: NCI anticancer screen, dose series, 48 h

`CCOC(=O)C1C(=O)CC(C)(O)C(C(=O)OCC)C1c1ccc(OC)cc1` (centres undefined): the GI50 in the test on EKVX, in the test with OVCAR-5, with CAKI-1, in the test with COLO 205, with OVCAR-8 and with ACHN was > 100 µM (inactive) in each case. For the same compound, the GI50 in the test on Malme-3M, with CCRF-CEM, in the test on HL-60, in the test with SN12C, in the test with MDA-N and in the test with IGROV-1 was > 100 µM (inactive) in each case. In addition, the GI50 in the test with SW-620, in the test with NCI-H460, in the test with TK-10, in the test with UO-31, in the test on UACC-62 and in the test on HCT-116 was > 100 µM (inactive) each time. Further, the GI50 in the test with HCC 2998 and in the test with SF-268 was > 100 µM (inactive) throughout.

As for `CC(C)c1ccc2c(c1)CCC1C(C)(CN)CCCC21C` (centres undefined), the GI50 with EKVX is 1.86 µM (inactive); with OVCAR-5, 1.76 µM (inactive); with CAKI-1, 1.41 µM (inactive); in the test with COLO 205, 0.575 µM (active); in the test with OVCAR-8, 1.73 µM (inactive); in the test with ACHN it was 1.74 µM (inactive). The GI50 in the test on Malme-3M is 1.43 µM (inactive); with CCRF-CEM, 1.55 µM (inactive); in the test with HL-60, 1.31 µM (inactive); in the test on SN12C, 1.71 µM (inactive); in the test on MDA-N, 1.51 µM (inactive); with IGROV-1 it was 1.71 µM (inactive). In addition, the GI50 in the test with SW-620 was 1.29 µM (inactive); in the test on NCI-H460 it was 1.22 µM (inactive); in the test on TK-10, 1.7 µM (inactive); in the test with UO-31, 1.39 µM (inactive); in the test on UACC-62 it was 1.77 µM (inactive); with HCT-116 it was 1.59 µM (inactive). The figures for the GI50 in the test with HCC 2998 and in the test with SF-268 were 0.0438 µM (active) and 1.65 µM (inactive), respectively.

For the compound `COc1ccccc1Cn1c2c(c3c(C(=O)NCCN(C)C)c(O)ccc31)C(=O)c1ccccc1C2=O`, the GI50 with EKVX is 1.82 µM (inactive); with OVCAR-5 it was 1.94 µM (inactive); with CAKI-1, 2.04 µM (inactive); with COLO 205, 1.94 µM (inactive); in the test on OVCAR-8 it was 2.14 µM (inactive); in the test with ACHN, 1.64 µM (inactive). In addition, the GI50 was 1.63 µM (inactive) with Malme-3M; 0.298 µM (active) with CCRF-CEM; 1.01 µM (active) in the test with HL-60; 1.94 µM (inactive) in the test on SN12C; 1.4 µM (inactive) with MDA-N; 1.68 µM (inactive) with IGROV-1. The GI50 in the test on NCI-H460 was 2.09 µM (inactive); with TK-10 it was 1.61 µM (inactive); with UO-31, 1.75 µM (inactive); in the test on UACC-62 it was 1.83 µM (inactive); in the test on HCT-116, 0.759 µM (active); in the test with HCC 2998, 1.66 µM (inactive). In the test with SF-268, the GI50 was 1.68 µM (inactive).

`C(=N/c1ccccc1C1SCCCS1)/c1ccccc1`: the GI50 with EKVX, with OVCAR-5, in the test on CAKI-1, in the test with COLO 205, with OVCAR-8 and in the test on ACHN was > 100 µM (inactive) each time. Further, the GI50 was > 100 µM (inactive) in the test with Malme-3M; > 100 µM (inactive) in the test with CCRF-CEM; 82.6 µM (inactive) with HL-60; > 100 µM (inactive) with SN12C; > 100 µM (inactive) with MDA-N; > 100 µM (inactive) in the test with IGROV-1. Further, the GI50 with SW-620, with NCI-H460, with TK-10, in the test with UO-31, in the test with UACC-62 and in the test on HCT-116 was > 100 µM (inactive) throughout. Further, the GI50 in the test on HCC 2998 and with SF-268 was > 100 µM (inactive) each time.

On to `CCC[C@H](N[S+]([O-])c1ccc(C)cc1)C(C(=O)OCC)=C(c1ccccc1)c1ccccc1` (some centres undefined), for which the GI50 in the test with EKVX is 18.2 µM (inactive); with OVCAR-5, 14.5 µM (inactive); in the test on CAKI-1, 13.3 µM (inactive); in the test with COLO 205 it was 22.2 µM (inactive); in the test with OVCAR-8, 27.4 µM (inactive); with ACHN, 22.4 µM (inactive). Also, the GI50 is 17.4 µM (inactive) in the test with Malme-3M; 26 µM (inactive) in the test with CCRF-CEM; 21.4 µM (inactive) in the test with HL-60; 19.8 µM (inactive) in the test with SN12C; 20.8 µM (inactive) with MDA-N; 25.1 µM (inactive) with IGROV-1. The GI50 in the test on SW-620 was 57.4 µM (inactive); in the test on NCI-H460, 17 µM (inactive); with TK-10 it was 28.6 µM (inactive); with UO-31 it was 14.8 µM (inactive); in the test on UACC-62, 13.4 µM (inactive); in the test with HCT-116 it was 14.1 µM (inactive). Moreover, the values for the GI50 in the test with HCC 2998 and in the test with SF-268 were 3.13 µM (inactive) and 30.1 µM (inactive), respectively.

As to `O=[N+]([O-])c1ccccc1S(=O)(=O)N1CCCc2cc(Cl)ccc21`, the GI50 in the test on EKVX was 77.4 µM (inactive); in the test on OVCAR-5, > 93.1 µM (inactive); in the test with CAKI-1, > 100 µM (inactive); in the test on COLO 205, 38.7 µM (inactive); in the test with OVCAR-8 it was 88.9 µM (inactive); in the test on ACHN, > 51.6 µM (inactive). Further, the GI50 with Malme-3M is > 100 µM (inactive); with CCRF-CEM it was 8.91 µM (inactive); in the test on HL-60 it was 6.3 µM (inactive); in the test on SN12C, 82.4 µM (inactive); with MDA-N, 4.46 µM (inactive); with IGROV-1 it was 39 µM (inactive). For the same compound, the GI50 in the test on SW-620 was 17.1 µM (inactive); in the test on NCI-H460, 18.6 µM (inactive); in the test with TK-10 it was > 100 µM (inactive); with UO-31 it was 30.6 µM (inactive); with UACC-62, 23.9 µM (inactive); with HCT-116, 16.2 µM (inactive). The figures for the GI50 in the test on HCC 2998 and with SF-268 were 38 µM (inactive) and > 68.1 µM (inactive), respectively.

Regarding `O=C(NCC(=O)N1CCCC1C(=O)OC(=O)C1CCCN1C(=O)CNC(=O)OCc1ccccc1)OCc1ccccc1` (centres undefined), the GI50 in the test with EKVX is 42.8 µM (inactive); in the test on OVCAR-5, 29.1 µM (inactive); in the test on CAKI-1 it was > 100 µM (inactive); in the test with COLO 205 it was 18.7 µM (inactive); in the test with OVCAR-8, 41.4 µM (inactive); with ACHN, 36.2 µM (inactive). Also, the GI50 with Malme-3M was 19.1 µM (inactive); in the test with CCRF-CEM, 35.9 µM (inactive); with HL-60, 46.9 µM (inactive); in the test with SN12C, 31.8 µM (inactive); with MDA-N, 25.3 µM (inactive); in the test with IGROV-1 it was 33.8 µM (inactive). Further, the GI50 with SW-620 was 76.9 µM (inactive); in the test on NCI-H460 it was 33.1 µM (inactive); in the test with TK-10, 17.3 µM (inactive); with UO-31, 65.6 µM (inactive); in the test on UACC-62 it was 14.7 µM (inactive); in the test with HCT-116 it was 32.9 µM (inactive). Moreover, the GI50 was 32.7 µM (inactive) with HCC 2998 and 30.4 µM (inactive) with SF-268.

As for `CCCCC(=O)c1c(O)ccc2c(C)cc(=O)oc12`, the GI50 in the test on EKVX is 89.1 µM (inactive); in the test with OVCAR-5, > 100 µM (inactive); in the test with CAKI-1, 68.9 µM (inactive); in the test on COLO 205, > 100 µM (inactive); with OVCAR-8 it was > 100 µM (inactive); in the test with ACHN it was 96.6 µM (inactive). For the same compound, the GI50 with Malme-3M is 39.9 µM (inactive); with CCRF-CEM, 82.2 µM (inactive); in the test on HL-60, > 100 µM (inactive); in the test on SN12C, > 100 µM (inactive); in the test with MDA-N, > 100 µM (inactive); in the test with IGROV-1, 95.5 µM (inactive). For the same compound, the GI50 was > 100 µM (inactive) in the test on SW-620; 53.1 µM (inactive) in the test on NCI-H460; > 100 µM (inactive) in the test on TK-10; 24.8 µM (inactive) in the test on UO-31; > 100 µM (inactive) in the test on UACC-62; > 100 µM (inactive) with HCT-116. Moreover, the GI50 is 45.8 µM (inactive) in the test with HCC 2998 and > 100 µM (inactive) with SF-268.

Consider `COc1ccc(CCNCCCC2c3ccccc3-c3ccccc32)cc1OC`, for which the GI50 in the test on EKVX was 16.3 µM (inactive); in the test with OVCAR-5 it was 19.2 µM (inactive); in the test on CAKI-1, 18.4 µM (inactive); in the test on COLO 205, 1.86 µM (inactive); in the test with OVCAR-8, 16.6 µM (inactive); with ACHN, 16.1 µM (inactive). In addition, the GI50 in the test with Malme-3M was 13.6 µM (inactive); in the test with CCRF-CEM, 24.3 µM (inactive); with HL-60, 12.9 µM (inactive); in the test with SN12C, 15 µM (inactive); in the test on MDA-N, 16.7 µM (inactive); in the test with IGROV-1, 13.6 µM (inactive). Further, the GI50 is 7.33 µM (inactive) in the test with SW-620; 7.16 µM (inactive) in the test on NCI-H460; 14.4 µM (inactive) in the test with TK-10; 11.6 µM (inactive) with UO-31; 16.4 µM (inactive) in the test on UACC-62; 12.6 µM (inactive) with HCT-116. Also, the GI50 in the test with HCC 2998 is 2.06 µM (inactive); in the test on SF-268, 15.1 µM (inactive).

Take `Cc1c(O)c(OC2OC(CO)C(O)C(O)C2O)cc2c1CC[C@@H]1C2(C)C(=O)C[C@]2(C)[C@@H]([C@@](C)(O)C(O)/C=C/C(C)(C)O)[C@H](O)C[C@@]12C` (some centres undefined): the GI50 with EKVX, with OVCAR-5, in the test on CAKI-1, in the test with COLO 205, in the test with OVCAR-8 and with ACHN was > 100 µM (inactive) in each case. Further, the GI50 in the test on Malme-3M, with CCRF-CEM, in the test with HL-60, with SN12C, in the test with MDA-N and in the test on IGROV-1 was > 100 µM (inactive) each time. Besides, the GI50 in the test with SW-620, with NCI-H460, with TK-10, with UO-31, with UACC-62 and in the test on HCT-116 was > 100 µM (inactive) throughout. In addition, the GI50 with HCC 2998 and with SF-268 was > 100 µM (inactive) each time.
